Measurements taken from paper PMC3258254, “Intestinal Absorption and First-Pass Metabolism of Polyphenol Compounds in Rat and Their Transport Dynamics in Caco-2 Cells” (PLoS ONE, 2012).

How the values were obtained:
[1] = Pharmacokinetics in rat plasma after oral administration of polyphenols; conditions: for AUC / Cmax: 50 µmol•kg^–1; for K / T1/2Ke / Tpeak: rat plasma, oral 50 µmol•kg^–1, mean ± SD, n = 6
Text: Male Sprague-Dawley rats (70–110 days old) weighing between 270 g and 320 g were obtained from the experimental animal centre of the Fourth Military Medical University, Xi'an, China. The rats were subjected to fasting overnight, with free access to water before the day of experiment.
The polyphenol compounds solution, prepared in 0.5% sodium carboxyl methyl cellulose (CMC-Na), were orally administrated to the rats using a dose of 50 µmol•kg^–1. Blood samples were collected from the vena abdominalis under light ether anaesthesia at different times (0.08, 0.17, 0.5, 1, 2, 4, 8, 12, 16, 24 and 36 h). The samples were immediately centrifuged for 10 min at 7185 g to obtain plasma, which was then frozen at −70°C until required for analysis.
Metabolite samples were analyzed after treatment with β-glucuronidase or sulphatase [21]–[22]. The samples (0.2 mL) were extracted with 1 mL ethyl acetate by vigorous vortex mixing for 1 min, then centrifuged at 3000× g at room temperature for 10 min. The supernatants were evaporated to dryness under N2, reconstituted in 100 µL of methanol, and analyzed for the presence of polyphenols and their derivatives using liquid chromatography coupled with tandem mass spectrometry (LC/MS/MS) using a Quattro Premier system operating under MassLynx MS Software, v4.1 (Waters Corporation, Milford, MA, USA). […] Quantitation was performed by multiple reaction monitoring of the deprotonated precursor ion and the related product ion for these polyphenols using the internal standard method with peak area ratio [23]–[24]. Collision-induced dissociation was achieved using argon as the collision gas. Standard solutions of the polyphenol compounds (1 µg•mL^–1) were applied to optimize the detection conditions in the presence of mobile phase. […] The column temperature and flow rate were 25°C and 0.2 mL⋅min^–1, respectively.

rat small intestine = experiment: In situ intestinal perfusion model (isolated rat small intestine, luminal and vascular perfusion); type: in vivo
Protocol: The rats were anaesthetized with an intra-abdominal injection of a mixture containing 40 mg•kg^–1 sodium phenobarbital. The animals were then heparinized (90 U•kg^–1) via the vena caudalis. […] Briefly, a segment of intestine between 7 and 11 cm long was identified and separated and silicone tubing was placed inside both ends of the segment. The tube at the proximal side was connected to a peristaltic pump for luminal perfusion.

[2] = Transport (permeability, Papp) across Caco-2 cell monolayers; type: in vitro ADME, human; conditions: human, mean ± SD; for Papp A→B at 50 µM: Caco-2, apical to basolateral, n = 6, read-out: Papp AP to BL; for Papp B→A at 50 µM: Caco-2, basolateral to apical, n = 6, read-out: Papp BL to AP
Protocol: (§1) Caco-2 cells, derived from human colorectal adenocarcinoma cells, were obtained from the American Type Culture Collection (Manassas, VA, USA) and maintained in plastic culture flasks (Corning Costar, Cambridge, MA, USA). The cells were cultured in Dulbecco's modified Eagle's minimal essential medium supplemented with 1% non-essential amino acids, 1% L-glutamine, 20% foetal bovine serum, 100 U•mL^–1 penicillin, and 0.1 mg•mL^–1 streptomycin, and were grown in a humidified atmosphere of 5% CO2 in air at 37°C (Figure S1). Cells were subcultured to 80% confluency.
(§2) For transport experiments, Caco-2 cells were seeded at a cell density of 1×10^5 cells•cm^−2 on Millicell Cell Culture Inserts (Millipore, Billerica, MA, USA). Cells were used 19 to 21 days after seeding, by which time the transepithelial electrical resistance value was >300 Ω•cm^–2. The culture medium was replaced with fresh medium 24 h before the transport experiments. Polyphenol compounds (50 µM) were added from the apical or basolateral side to evaluate the transport characteristics of the cells. To investigate the role of different transporters, Caco-2 cells were preincubated with verapamil (an inhibitor of P-glycoprotein), cyclosporine A (a dual inhibitor of P-glycoprotein and multi-drug resistance protein 2, MRP2), or phloridzin, (a selective inhibitor of sodium/glucose cotransporter 1, SGLT1) to investigate the absorptive and transport changes of the polyphenol compounds [19]–[20]. The samples were collected and stored at −70°C until needed for analysis.

Caco-2 cells [3] = experiment: as above; type: in vitro ADME, human; conditions: 50 µM, parent compound
Protocol: as §1, §2

Caco-2 cells [4] = experiment: Cellular uptake / intracellular accumulation in Caco-2 cells, with or without transporter inhibitors; type: in vitro ADME, human; conditions: for Intracellular accumulation / uptake in the presence of phloridzin: 50 µM phloridzin (SGLT1 inhibitor); for Time of maximum intracellular accumulation (given as Cmax): 50 µM, parent compound in Caco-2 cells; for Intracellular accumulation after pre-treatment with cyclosporine A: 100 µM cyclosporine A (P-glycoprotein and MRP2 inhibitor); for Intracellular accumulation after pre-treatment with verapamil: 100 µM verapamil (P-glycoprotein inhibitor)
Protocol: Caco-2 cells, derived from human colorectal adenocarcinoma cells, were obtained from the American Type Culture Collection (Manassas, VA, USA) and maintained in plastic culture flasks (Corning Costar, Cambridge, MA, USA). […] Cells were subcultured to 80% confluency. For all cellular uptake studies of polyphenols, Caco-2 cells were seeded at a cell density of 6×10^5 cells•cm^–2 on six-well plastic plates. Cells were used 14 to 21 days after seeding. The culture medium was replaced with fresh medium 24 h before the uptake experiments. Polyphenol compounds (50 µM) were added to evaluate the uptake characteristics of Caco-2 cells. To determine the intracellular concentration of polyphenols, the cell lysate was obtained by subjecting the drug-containing cells to three freeze-thaw cycles in liquid nitrogen. Protein concentrations were measured using the Bradford method with bovine serum albumin as a standard. For transport experiments, Caco-2 cells were seeded at a cell density of 1×10^5 cells•cm^−2 on Millicell Cell Culture Inserts (Millipore, Billerica, MA, USA). […] The culture medium was replaced with fresh medium 24 h before the transport experiments. Polyphenol compounds (50 µM) were added from the apical or basolateral side to evaluate the transport characteristics of the cells. […] The samples were collected and stored at −70°C until needed for analysis.

[5] = male, Sprague-Dawley, rat, plasma, po
[6] = male, Sprague-Dawley, rat, in vivo, po
[7] = 1500 nmol applied, perfusion 60 min
[8] = 1500 nmol applied, perfusion 60 min, mean ± SD, n = 3

Row | SMILES | AUC [1, 5] | Cmax [1, 5] | K [1] | T1/2Ke [1] | Tpeak [1] | Total percentage of parent compound and metabolites, luminal side compared with vascular side (rat small intestine; rat, in vivo) | Luminal effluent, % of delivered dose (rat small intestine; rat, in vivo, 60 min) | Papp A→B at 50 µM [2] | Papp B→A at 50 µM [2] | Permeability value BL to AP compared with AP to BL (Caco-2 cells [3]) | Intracellular accumulation / uptake in the presence of phloridzin (Caco-2 cells [4]) | Time of maximum intracellular accumulation (given as Cmax) (Caco-2 cells [4]) | Intracellular accumulation after pre-treatment with cyclosporine A (Caco-2 cells [4]) | Intracellular accumulation after pre-treatment with verapamil (Caco-2 cells [4]) | other results
1 | O=c1cc(-c2ccc(O)cc2)oc2cc(O)cc(O)c12 [Apigenin] | 659 ± 25 ng·h/mL | 42 ± 2 ng/mL | 0.16±0.02 ^1 h^−1 | 2.11 ± 0.03 h | 0.50 ± 0.01 h | two- to three-fold greater | 53.87 ^2% | 13.8 ± 1.21 ×10⁻⁶ cm/s | 12.9 ± 2.54 ×10⁻⁶ cm/s | no changes | no changes were observed | 10 min | clearly increased | clearly increased | –
2 | Cc1cc(O)c2c(c1)C(=O)c1cc(O)cc(O)c1C2=O [Emodin] | – | – | 0.23 ± 0.04 h⁻¹ | 2.93 ± 0.04 h | 0.50 ± 0.01 h | – | – | 9.52 ± 1.45 ×10⁻⁶ cm/s | 24.4 ± 3.22 ×10⁻⁶ cm/s | much greater (by a factor of two) | reduced the cellular uptake | 10 min | increased the uptake | increased the uptake | Plasma concentration of glucuronidated metabolites relative to sulphated metabolites [1, 6]: 10 fold; AUC [1, 6]: 809 ± 17 ng·h/mL; Cmax [1, 6]: 72 ± 6 ng/mL; Total percentage of parent compound and metabolites, luminal side compared with vascular side (rat small intestine; isolated intestine perfusion, estimated): two- to three-fold greater
3 | Oc1ccc(/C=C/c2cc(O)cc(O)c2)cc1 [Resveratrol] | 98 ± 7 ng·h/mL | 157 ± 13 ng/mL | 0.38 ± 0.03 h⁻¹ | 1.82 ± 0.05 h | – | – | – | 11.3 ± 3.45 ×10⁻⁶ cm/s | 7.86 ± 2.67 ×10⁻⁶ cm/s | lower | no changes were observed | increased in a time-dependent manner | clearly increased | clearly increased | Luminal effluent, % of delivered dose (rat small intestine; [7]): 35.37 ^2%; Vascular side, % of delivered dose (rat small intestine; [7]): 12.74 ^2%; Luminal effluent, amount (rat small intestine; [8]): 536 ± 27 nmol; Vascular side, amount (rat small intestine; [8]): 193 ± 11 nmol
4 | Cc1cc(O)c2c(c1)C(=O)c1cccc(O)c1C2=O [Chrysophanol] | 1720 ± 57 ng·h/mL | 326 ± 18 ng/mL | 0.08 ± 0.01 h⁻¹ | 8.00 ± 0.28 h | 3.00 ± 0.01 h | no clear differences | 36.82 ^2% | 10.8 ± 2.34 ×10⁻⁶ cm/s | 27.4 ± 4.19 ×10⁻⁶ cm/s | much greater (by a factor of two) | reduced the cellular uptake | 10 min | increased the uptake | increased the uptake | Vascular side, % of delivered dose (rat small intestine; rat, in vivo, 60 min): 32.22 ^2%
